Experimental data published in ChEMBL document CHEMBL3885881, “DrugMatrix”.

Organism: Rattus norvegicus
Assay: DrugMatrix - Regimen: Daily Repeat
Format: toxicity, organism-based, Sprague-Dawley
Set-up: regimen Daily Repeat, gender Male, age 6-8 weeks
Conditions: in vivo, po, route oral GAVAGE, vehicle .5 % CMC; for ABSOLUTE BASOPHIL / ABSOLUTE EOSINOPHIL / ABSOLUTE LYMPHOCYTE / ABSOLUTE MONOCYTE / ABSOLUTE SEGMENTED NEUTROPHIL / BASOPHIL / EOSINOPHIL / ERYTHROCYTE COUNT / HEMATOCRIT / HEMOGLOBIN / LEUKOCYTE COUNT / LYMPHOCYTE / MEAN CORPUSCULAR HEMOGLOBIN / MEAN CORPUSCULAR HEMOGLOBIN CONCENTRATION / MEAN CORPUSCULAR VOLUME / MONOCYTE / NEUTROPHIL / NUCLEATED RED BLOOD CELLS / PLATELET COUNT: tissue Blood; for ALANINE AMINOTRANSFERASE / ALBUMIN / ALKALINE PHOSPHATASE / ASPARTATE AMINOTRANSFERASE / BLOOD UREA NITROGEN / CARBON DIOXIDE / CHLORIDE / CHOLESTEROL / CREATINE PHOSPHOKINASE / CREATININE / GLUCOSE / LACTATE DEHYDROGENASE / LIPASE / POTASSIUM / SODIUM / TOTAL BILIRUBIN / TOTAL PROTEIN: tissue Plasma
[1] = 0 mg/kg, 72 h, dose level Control, time 3 day
[2] = 0 mg/kg, 120 h, dose level Control, time 5 day
[3] = 150 mg/kg, 72 h, dose level Low, time 3 day

Which “ABSOLUTE BASOPHIL” value [1] does the source give for C[C@@H]1CC[C@H]2[C@@H](C)C(=O)O[C@@H]3O[C@@]4(C)CC[C@@H]1[C@]32OO4 [ARTEMISININ] here?
Its value is 0 CELLS/uL.

And the “ABSOLUTE EOSINOPHIL” value [1]?
Its value is 171.33 CELLS/uL.

And the “ABSOLUTE LYMPHOCYTE” value [1]?
Its value is 13776.5 CELLS/uL.

And the “ABSOLUTE MONOCYTE” value [1]?
Its value is 180.83 CELLS/uL.

And the “ABSOLUTE SEGMENTED NEUTROPHIL” value [1]?
The value was 1121.33 CELLS/uL.

And the BASOPHIL [1]?
The BASOPHIL was 0%.

What about the EOSINOPHIL [1] of the same molecule?
The EOSINOPHIL was 1%.

And the “ERYTHROCYTE COUNT” value [1]?
Its value is 5.56 x10E6/uL.

What about the HEMATOCRIT [1] of the same molecule?
Its HEMATOCRIT is 34.75%.

And the HEMOGLOBIN [1]?
The HEMOGLOBIN was 13.68 G/DL.

What about the “LEUKOCYTE COUNT” value [1] of the same molecule?
The value was 15.25 x10E3/uL.

What about the LYMPHOCYTE [1] of the same molecule?
Its LYMPHOCYTE is 90.17%.

What about the “MEAN CORPUSCULAR HEMOGLOBIN” value [1] of the same molecule?
Its value is 24.6 pg.

What about the “MEAN CORPUSCULAR HEMOGLOBIN CONCENTRATION” value [1] of the same molecule?
Its value is 39.4 G/DL.

What about the “MEAN CORPUSCULAR VOLUME” value [1] of the same molecule?
The value was 62.48 fL.

What about the MONOCYTE [1] of the same molecule?
The MONOCYTE was 1.17%.

And the NEUTROPHIL [1]?
The NEUTROPHIL was 7.67%.

And the “NUCLEATED RED BLOOD CELLS” value [1]?
Its value is 0 /100WBC.

What about the “PLATELET COUNT” value [1] of the same molecule?
Its value is 1342 x10E3/uL.

And the “ALANINE AMINOTRANSFERASE” value [1]?
Its value is 49.67 u/L.

And the ALBUMIN [1]?
Its ALBUMIN is 4.15 G/DL.

What about the “ALKALINE PHOSPHATASE” value [1] of the same molecule?
Its value is 346.83 u/L.

What about the “ASPARTATE AMINOTRANSFERASE” value [1] of the same molecule?
The value was 108.17 u/L.

And the “BLOOD UREA NITROGEN” value [1]?
The value was 17.33 mg/dL.

What about the “CARBON DIOXIDE” value [1] of the same molecule?
Its value is 25 mmol/L.

What about the CHLORIDE [1] of the same molecule?
Its CHLORIDE is 100.83 MEQ/L.

What about the CHOLESTEROL [1] of the same molecule?
Its CHOLESTEROL is 66.83 mg/dL.

What about the “CREATINE PHOSPHOKINASE” value [1] of the same molecule?
The value was 788 u/L.

What about the CREATININE [1] of the same molecule?
Its CREATININE is 0.18 mg/dL.

What about the GLUCOSE [1] of the same molecule?
The GLUCOSE was 151.67 mg/dL.

What about the “LACTATE DEHYDROGENASE” value [1] of the same molecule?
Its value is 982.5 u/L.

What about the LIPASE [1] of the same molecule?
The LIPASE was 10.33 u/L.

And the POTASSIUM [1]?
Its POTASSIUM is 6.37 MEQ/L.

What about the SODIUM [1] of the same molecule?
The SODIUM was 141.02 MEQ/L.

And the “TOTAL BILIRUBIN” value [1]?
Its value is 0.18 mg/dL.

What about the “TOTAL PROTEIN” value [1] of the same molecule?
The value was 5.9 G/DL.

And the “ABSOLUTE BASOPHIL” value [2]?
Its value is 0 CELLS/uL.

What about the “ABSOLUTE EOSINOPHIL” value [2] of the same molecule?
The value was 69 CELLS/uL.

And the “ABSOLUTE LYMPHOCYTE” value [2]?
Its value is 13632.83 CELLS/uL.

What about the “ABSOLUTE MONOCYTE” value [2] of the same molecule?
Its value is 139.83 CELLS/uL.

And the “ABSOLUTE SEGMENTED NEUTROPHIL” value [2]?
The value was 1225 CELLS/uL.

And the BASOPHIL [2]?
Its BASOPHIL is 0%.

What about the EOSINOPHIL [2] of the same molecule?
Its EOSINOPHIL is 0.33%.

And the “ERYTHROCYTE COUNT” value [2]?
The value was 5.52 x10E6/uL.

And the HEMATOCRIT [2]?
The HEMATOCRIT was 33.98%.

And the HEMOGLOBIN [2]?
Its HEMOGLOBIN is 13.22 G/DL.

And the “LEUKOCYTE COUNT” value [2]?
Its value is 15.07 x10E3/uL.

And the LYMPHOCYTE [2]?
The LYMPHOCYTE was 90.83%.

And the “MEAN CORPUSCULAR HEMOGLOBIN” value [2]?
The value was 23.95 pg.

What about the “MEAN CORPUSCULAR HEMOGLOBIN CONCENTRATION” value [2] of the same molecule?
The value was 38.9 G/DL.

What about the “MEAN CORPUSCULAR VOLUME” value [2] of the same molecule?
Its value is 61.53 fL.

And the MONOCYTE [2]?
Its MONOCYTE is 0.83%.

What about the NEUTROPHIL [2] of the same molecule?
Its NEUTROPHIL is 8%.

What about the “NUCLEATED RED BLOOD CELLS” value [2] of the same molecule?
The value was 0 /100WBC.

And the “PLATELET COUNT” value [2]?
The value was 1196 x10E3/uL.

What about the “ALANINE AMINOTRANSFERASE” value [2] of the same molecule?
Its value is 49.17 u/L.

What about the ALBUMIN [2] of the same molecule?
The ALBUMIN was 4.2 G/DL.

What about the “ALKALINE PHOSPHATASE” value [2] of the same molecule?
The value was 352.33 u/L.

And the “ASPARTATE AMINOTRANSFERASE” value [2]?
The value was 89.67 u/L.

What about the “BLOOD UREA NITROGEN” value [2] of the same molecule?
Its value is 18 mg/dL.

What about the “CARBON DIOXIDE” value [2] of the same molecule?
The value was 27.67 mmol/L.

And the CHLORIDE [2]?
Its CHLORIDE is 101 MEQ/L.

What about the CHOLESTEROL [2] of the same molecule?
The CHOLESTEROL was 72.83 mg/dL.

What about the “CREATINE PHOSPHOKINASE” value [2] of the same molecule?
The value was 417.5 u/L.

And the CREATININE [2]?
Its CREATININE is 0.18 mg/dL.

What about the GLUCOSE [2] of the same molecule?
Its GLUCOSE is 150.5 mg/dL.

And the “LACTATE DEHYDROGENASE” value [2]?
Its value is 517.33 u/L.

And the LIPASE [2]?
Its LIPASE is 9 u/L.

And the POTASSIUM [2]?
The POTASSIUM was 6.57 MEQ/L.

And the SODIUM [2]?
Its SODIUM is 143.62 MEQ/L.

And the “TOTAL BILIRUBIN” value [2]?
Its value is 0.2 mg/dL.

What about the “TOTAL PROTEIN” value [2] of the same molecule?
The value was 6.08 G/DL.

What about the “ABSOLUTE BASOPHIL” value [3] of the same molecule?
The value was 0 CELLS/uL.

And the “ABSOLUTE EOSINOPHIL” value [3]?
Its value is 206 CELLS/uL.

And the “ABSOLUTE LYMPHOCYTE” value [3]?
Its value is 10521.33 CELLS/uL.

What about the “ABSOLUTE MONOCYTE” value [3] of the same molecule?
The value was 315 CELLS/uL.

And the “ABSOLUTE SEGMENTED NEUTROPHIL” value [3]?
Its value is 957.67 CELLS/uL.

What about the BASOPHIL [3] of the same molecule?
The BASOPHIL was 0%.

And the EOSINOPHIL [3]?
The EOSINOPHIL was 1.67%.

And the “ERYTHROCYTE COUNT” value [3]?
The value was 6.1 x10E6/uL.

What about the HEMATOCRIT [3] of the same molecule?
Its HEMATOCRIT is 36.63%.

What about the HEMOGLOBIN [3] of the same molecule?
Its HEMOGLOBIN is 13.77 G/DL.

And the “LEUKOCYTE COUNT” value [3]?
The value was 12 x10E3/uL.

And the LYMPHOCYTE [3]?
Its LYMPHOCYTE is 87.67%.

What about the “MEAN CORPUSCULAR HEMOGLOBIN” value [3] of the same molecule?
Its value is 22.63 pg.

What about the “MEAN CORPUSCULAR HEMOGLOBIN CONCENTRATION” value [3] of the same molecule?
The value was 37.6 G/DL.

What about the “MEAN CORPUSCULAR VOLUME” value [3] of the same molecule?
The value was 60.1 fL.

What about the MONOCYTE [3] of the same molecule?
The MONOCYTE was 2.67%.

And the NEUTROPHIL [3]?
The NEUTROPHIL was 8%.

What about the “NUCLEATED RED BLOOD CELLS” value [3] of the same molecule?
The value was 0 /100WBC.

What about the “PLATELET COUNT” value [3] of the same molecule?
Its value is 1362.67 x10E3/uL.

And the “ALANINE AMINOTRANSFERASE” value [3]?
Its value is 38 u/L.

What about the ALBUMIN [3] of the same molecule?
The ALBUMIN was 4.53 G/DL.

What about the “ALKALINE PHOSPHATASE” value [3] of the same molecule?
The value was 347.67 u/L.

And the “ASPARTATE AMINOTRANSFERASE” value [3]?
The value was 86.67 u/L.

What about the “BLOOD UREA NITROGEN” value [3] of the same molecule?
Its value is 22 mg/dL.

What about the “CARBON DIOXIDE” value [3] of the same molecule?
The value was 25.33 mmol/L.

And the CHLORIDE [3]?
The CHLORIDE was 104.33 MEQ/L.

What about the CHOLESTEROL [3] of the same molecule?
Its CHOLESTEROL is 87.67 mg/dL.

What about the “CREATINE PHOSPHOKINASE” value [3] of the same molecule?
The value was 336.33 u/L.

And the CREATININE [3]?
Its CREATININE is 0.24 mg/dL.

What about the GLUCOSE [3] of the same molecule?
The GLUCOSE was 145.67 mg/dL.

What about the “LACTATE DEHYDROGENASE” value [3] of the same molecule?
Its value is 459.33 u/L.

And the LIPASE [3]?
The LIPASE was 11 u/L.

What about the POTASSIUM [3] of the same molecule?
The POTASSIUM was 6.03 MEQ/L.

And the SODIUM [3]?
The SODIUM was 146.83 MEQ/L.

And the “TOTAL BILIRUBIN” value [3]?
The value was 0.13 mg/dL.
